“Also recorded” adds a separate entry of the source.
Tests used:
ETA = biological target: T1, ETA (Homo sapiens, UniProt P25101); assay: Functional potency for ETA receptor; format: biochemical
T1 sequence (P25101 21-427): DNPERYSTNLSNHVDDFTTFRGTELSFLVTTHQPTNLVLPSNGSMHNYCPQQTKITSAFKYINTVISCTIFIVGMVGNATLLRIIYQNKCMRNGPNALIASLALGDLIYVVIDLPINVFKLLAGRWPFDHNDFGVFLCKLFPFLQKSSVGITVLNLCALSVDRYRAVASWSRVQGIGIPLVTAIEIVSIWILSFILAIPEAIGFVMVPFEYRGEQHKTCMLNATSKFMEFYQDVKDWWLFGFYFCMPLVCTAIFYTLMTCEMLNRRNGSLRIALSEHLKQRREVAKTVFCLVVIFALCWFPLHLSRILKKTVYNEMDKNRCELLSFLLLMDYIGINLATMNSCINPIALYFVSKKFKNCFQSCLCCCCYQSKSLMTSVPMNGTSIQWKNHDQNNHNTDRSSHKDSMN
Source text: (§1) In the above table, the physicochemical data, e.g., solubility, were obtained following standard protocols known in the field (see, e.g., Reis et al., Mini Rev Med Chem., 2010, 10(11):1071-6; Avdeef et al., Expert Opin Drug Metab Toxicol., 2005, 1(2):325-42; Bharate et al., Comb Chem High Throughput Screen., 2016, 19(6):461-9; and Jain et al., J Pharm Biomed Anal., 2013, 86:11-35.); and the biochemical data, i.e., potency for ETA/ETB, were obtained following the protocols known in the field (see, e.g., Kirkby et al., Br J Pharmacol., 2008, 153(6):1105-19; and Maguire et al., Br J Pharmacol., 2014, 171(24):5555-72.).

[1] = Pharmacokinetics after intravitreal administration in the rabbit; format: in vivo, rabbits (Oryctolagus cuniculus); settings: IVT, plasma and ocular tissues
Description: To determine the pharmacokinetic and safety properties of Edonentan following intravitreal administration in the rabbit, rabbits (Oryctolagus cuniculus) received bilateral intravitreal injections (20 μL injection volume/eye). Following the injections, animals were tranquilized with a ketamine/xylazine cocktail, and then the animals were euthanized with an overdose of sodium pentobarbital (Euthasol). Animals designated for the pharmacokinetic analysis were euthanized at different time points (e.g. 12, 16, 24, 36 and 48 hours). At least 1.0 mL of whole blood was drawn from the marginal ear vein or cardiac puncture (terminal bleed only) into K2EDTA tubes for plasma collection and processed for analytical analysis.
Immediately following euthanasia, the eyes was enucleated. Aqueous humor from both eyes was removed via syringe and snap frozen for analysis. Eyes were dissected when frozen to isolate various ocular tissues and minimize drug diffusion to adjacent tissues. Tissues from left and right eyes were collected in separate vials for analysis. List of tissues collected include plasma and aqueous humor, iris/ciliary body (ICB), retina, vitreous humor and RPE/choroid. The pharmacokinetic properties of intravitreally delivered Edonentan in rabbits are shown in FIG. 9A, FIG. 9B, FIG. 9C and FIG. 9D.

Permeability (PAMPA) = format: in vitro ADME; settings: PAMPA log Pe and PSA
Source text: as §1

ET-1 induced vasospasm = assay: Rabbit ET-1 induced vasospasm model, retinal blood flow (FA, OCT-A); format: in vivo, rabbit (Oryctolagus cuniculus)
Description: Adult, male Dutch-belted rabbits were given a 20 μl intravitreal injection (IVT) of 0.5 μg of ET-1 followed by a 20 μl intravitreal injection of 10-100 μg Edonentan given 30 min after the ET-1 administration. IOP, optical coherence tomography-angiography (OCT-A), and fluorescein angiograms (FA) were performed at pre-specified time points (30, 45, 60, and 75 min) following ET-1 and Edonentan administration to assess retinal blood flow changes induced by ET-1+/−Edonentan. […] To evaluate the effect of retinal blood flow following intravitreally administered endothelin-1 (ET-1) followed by the antagonist Edonentan in the rabbit, rabbits (Oryctolagus cuniculus) were given a 20 μL intravitreal injection of ET-1 in the left eye followed by a 20 μL intravitreal injection of Edonentan at 2 (or 3) different doses (e.g. 0.1 μg, 0.5 μg, 2.5 μg). The pulse ox, tonometry, optical coherence tomography angiography (OCTA), fluorescein angiography (FA) and retinal leakage scoring were performed for evaluation.

[2] = Pharmacokinetics after topical administration in the rabbit; format: in vivo, Dutch-belted rabbits; settings: single eye drop 100 μg, 10 minutes, 2 and 7 hours
Description: To determine the pharmacokinetic properties of Edonentan following topical administration in the rabbit, rabbits (Dutch-belted rabbits) received an eye drop in both eyes (100 μg of Edonentan, 35 μL dose volume/eye). After the administrations, the animals (N=2) were euthanized at different time points (e.g. 10 minutes (immediately after pot-dose), 2 and 7 hours) and tissues were collected for analysis. List of tissues collected include plasma, retina, vitreous humor and bulbar conjunctiva.

[3] = test system: laser-induced glaucoma model; assay: Laser-induced non-human primate glaucoma model, ONH blood flow by LSFG after IVT administration; format: in vivo, rhesus macaque, Macaca Mulatta
Description: Non-human primates (rhesus macaque, Macaca Mulatta) were obtained for this study. One eye of each animal underwent induction of elevation of intraocular pressure (IOP) by repeated laser photocoagulation of the trabecular meshwork. Imaging sessions were repeated to monitor the optic nerve head (ONH) and retinal structural changes. A study was performed to compare an experimental glaucoma eye and a contralateral healthy eye (control) of three non-human primates in global average mean blur rate (MBR) and MBR change from baseline over time as an index of ONH blood flow in a laser-induced glaucoma model. More specifically, a vehicle control, 0.02 mg/mL of Edonentan, 0.2 mg/mL of Edonentan, or 2.0 mg/mL of Edonentan was intravitreally administered ([…]) to a glaucomatous eye of each of three non-human primates (rhesus macaque, Macaca Mulatta). These graphs show the ONH blood flow in the three non-human primates after IVT administration of a vehicle alone (FIG. 7A, FIG. 7E, and FIG. 7I), 0.02 mg/mL of Edonentan (FIG. 7B, FIG. 7F, and FIG. 7J), 0.2 mg/mL of Edonentan (FIG. 7C, FIG. 7G, and FIG. 7K) or 2.0 mg/mL of Edonentan (FIG. 7D, FIG. 7H, and FIG. 7L). […] In one of the above three non-human primates, an LSFG scan was performed at various selected time points when Edonentan was administered at 2.0 mg/mL.

Stability in solid state = format: physicochemical; settings: 2 h@125° C.
Source text: as §1

Functional potency for ETA and ETB receptors, rating in words (ETA): High potency
Specificity ETA versus ETB, rating in words (ETA; ETA vs ETB): High specificity
t1/2 after intravitreal delivery [1]: longer t1/2
Permeability, rating in words (Permeability (PAMPA)): Mid-High
Stability in Solid State, in words (Stability in solid state): Stable
Compound: Cc1onc(NS(=O)(=O)c2ccccc2-c2ccc(-c3ncco3)cc2CN(C)C(=O)CC(C)(C)C)c1C [Edonentan, N-[[2′-[[(4,5-dimethyl-3-isoxazolyl)amino]sulfonyl]-4-(2-oxazolyl)[1,1′-biphenyl]-2-yl]methyl]-N,3,3-trimethylbutanamide]
ET-1 induced vasospasm / vasoconstriction (fluorescein angiography) (ET-1 induced vasospasm; 0.5 μg ET-1 IVT, then 10 μg Edonentan IVT 30 min later): reversed; also recorded: reversal
Time to reversal of the ET-1 effect (ET-1 induced vasospasm; after ET-1, 10 μg Edonentan IVT (60 min after Edonentan)): ≤ 90 min
Fluorescein dye velocity as an index of retinal blood flow (ET-1 induced vasospasm; healthy rabbits, 0.5 μg ET-1 and 10 μg antagonist IVT): improved to control levels
Tissue exposure after topical administration (plasma, retina, vitreous humor, bulbar conjunctiva) [2]: detected in all tissues examined at all timepoints; also recorded: penetrate through ocular layers
ONH blood flow (global average MBR, LSFG), individual animals ([3]; IVT 0.02, 0.2 or 2.0 mg/mL Edonentan, glaucomatous eye, over 6 hours): improvement of ONH blood flow in a dose-dependent manner
ONH blood flow, aggregate of three non-human primates ([3]; IVT 0.02, 0.2 or 2.0 mg/mL, experimental glaucoma eyes vs control eyes): does-related increase of ONH blood flow

From patent US20260076948A1, “TREATMENT OF DIABETIC RETINOPATHY USING ENDOTHELIN RECEPTOR ANTAGONISTS” (Perfuse Therapeutics, Inc., priority 2019, published 2026)
